These results are taken from article PMC4821601, “The Interactions of P-Glycoprotein with Antimalarial Drugs, Including Substrate Affinity, Inhibition and Regulation” (PLoS ONE, 2016).

Molecules are shown by their SMILES. Like-named read-outs stand apart in the source and are kept apart here. Marks after values point to notes of the source that are not given here.

The test system of data set [1] is P-gp. The settings on record: cited from earlier work.
For data set [2] the following is noted: cited from earlier work.
Data set [3] in a line: Bidirectional transport (Papp, efflux ratio) of antimalarials through Caco-2 cell monolayers. It counts as in vitro ADME, human. The settings on record: human; for Papp at 120 min: Caco-2, Caco-2 monolayers. The protocol:
(§1) The initial experiments were conducted in mid-40s passage cells and repeated in early 80s passage Caco-2 cells. […] In order to maintain equivalent transport medium (HBSS/HBSS with inhibitor) level both outside and inside the chambers, 300 μL was used as medium in the apical chambers and 600 μL in the basolateral chambers. […] Drugs were co-incubated with MRCP, BCRP and ATP hydrolysis blockers to determine the involvement of other efflux mechanisms. Prior to the experiment, the transport medium, HBSS or HBSS with P-gp inhibitors were pre-incubated with the cells for 30 minutes. Following incubation, inserts were placed in new well plates and donor chamber is replaced with drug or drug with inhibitor and the receiver chamber with blank HBSS or HBSS with inhibitor. Transport medium was collected from the receiver chamber after stirring at time intervals of 30, 60, 90 and 120 minutes and was replaced with the same volume of fresh HBSS, or HBSS with inhibitor, when P-gp inhibitors were used in the study. At the end of the experiment 100 μL of medium was removed from the donor chamber in addition to medium collected from the receiver chamber during the study. The cells were then washed thoroughly in cold (4°C) PBS and cell membranes attached to the inserts were sonicated for 10 minutes in a sonicating water bath and centrifuged at 10,000 g for 10 minutes. Supernatant was frozen at -80°C until assayed. […] CL.vol=[…].vol = clearance volume (mL), n = time (min), Aa = amount in acceptor compartment at time n (pmols), Cd0 = concentration in donor compartment at time zero (nM), Vd = volume of the donor compartment (mL), Ca = concentration in acceptor compartment at the previous time point (nM), Vs = sample volume of previous time point (mL), Ac = amount of compound associated with the cells (pmol), Nfin = final time point (min). […] The cleared volume was plotted against time and the slope of the regression line was divided by the surface area to obtain the Papp values. […] The method from Davis and colleagues was adopted with slight modifications. Separations were performed using an Apollo C18 (5 μm, 4.6x150mm) column attached to a matched guard column (5 μm, 4.6x5.5 mm). […] The injection volume was 40 μL and column oven was maintained at 35°C. The analytes were detected at 222 nm and the retention time was 5.6 minutes. Assay developed by Pussard and co-workers were used and slight modifications were done to adjust laboratory conditions. Separation was done using a Prevail C18 (3 μm, 4.6x150mm) column attached to a Direct-connect^TM universal column prefilter. The mobile phase consisted of 20 mM (w/v) KH2PO4 in deionized water at pH 3.0 and acetonitrile (82:18) v/v. […] The injection volume was 40 μL and column oven was maintained at 30°C. The analytes were detected at 343 nm with a retention time of 2.4 minutes. […] Separations were performed using an Apollo C18 (5 μm, 4.6x150mm) column attached to matched guard column (5 μm, 4.6x5.5mm). […] The injection volume was 40 μL and column oven was maintained at 30°C. The analytes were detected at 660 nm with a retention time of 3.8 minutes. A 40 μL sample was spiked with 5 μL 0.5 mM artemisinin internal standard. […] The pipettor was adjusted to the maximum volume (100 μL). […] Pre-treated samples were loaded into the tips by gently aspirating and discarding into the same vial. The process was repeated 10 times in order to increase binding efficiency of drugs to the OMIX 96 C4 matrix. […] The LC-MS method described by […] and co-workers were modified to suit the LC-MS-MS conditions. […] Wexford, Ireland) at 40°C. […] Quantitation was performed in multiple reactions monitoring, MRM mode, using DUIS (ESI^+ and APCI^+) ion sources. […] The optimized mass spectra were acquired with an interface voltage of 4.5 kV, a detector voltage of 1.0 kV, a heat block temperature of 500°C and a desolvation temperature of 160°C.

For the next data set, the system named is Caco-2 cell monolayers. The data set is described as above. It counts as in vitro ADME, human. As for the experimental part:
as §1

The next data set has as its target T1, P-glycoprotein (P-gp) (Homo sapiens, UniProt P08183).
T1 construct: In-vitro Caco-2 cell monolayers were used here as a model for potential drug absorption related problems and P-gp mediated transport of drugs; endogenous in cells; host or cells: Caco-2 (human colon carcinoma, ATCC)
In words: Bidirectional transport of rhodamine123 through Caco-2 monolayers co-incubated with antimalarials (P-gp inhibitory properties). The class given is in vitro ADME. The protocol: The Caco-2 cells were seeded on 0.6 cm^2 […] Millipore PCF™ filter inserts at the cell density of 65,000 cells/cm^2 as done previously in the lab. Briefly, the cells were grown for 21–24 days to allow full maturation and formation of tight monolayers. The initial experiments were conducted in mid-40s passage cells and repeated in early 80s passage Caco-2 cells. The Trans epithelial electrical resistance (TEER) was measured immediately before and after the experiment using an epithelial voltage/ohm meter and an ENDOHM 12 chamber (World precision instruments, Sarasota, FL). TEER values were measured both before and after the study with readings above 300 Ω.cm^2 considered as acceptable for tight junctions. […] In order to maintain equivalent transport medium (HBSS/HBSS with inhibitor) level both outside and inside the chambers, 300 μL was used as medium in the apical chambers and 600 μL in the basolateral chambers. […] Drugs were co-incubated with MRCP, BCRP and ATP hydrolysis blockers to determine the involvement of other efflux mechanisms. Prior to the experiment, the transport medium, HBSS or HBSS with P-gp inhibitors were pre-incubated with the cells for 30 minutes. Following incubation, inserts were placed in new well plates and donor chamber is replaced with drug or drug with inhibitor and the receiver chamber with blank HBSS or HBSS with inhibitor. Transport medium was collected from the receiver chamber after stirring at time intervals of 30, 60, 90 and 120 minutes and was replaced with the same volume of fresh HBSS, or HBSS with inhibitor, when P-gp inhibitors were used in the study. At the end of the experiment 100 μL of medium was removed from the donor chamber in addition to medium collected from the receiver chamber during the study. The cells were then washed thoroughly in cold (4°C) PBS and cell membranes attached to the inserts were sonicated for 10 minutes in a sonicating water bath and centrifuged at 10,000 g for 10 minutes. Supernatant was frozen at -80°C until assayed. The Papp values of three well plates were determined using methods modified from Artursson’s group as described by Crowe and Lemaire.
CL.vol=Aa/{[Cd0×Vd−[Aa+(Ca×Vs)]−(Ac)×n/nfin]/Vd}
CL.vol = clearance volume (mL), n = time (min), Aa = amount in acceptor compartment at time n (pmols), Cd0 = concentration in donor compartment at time zero (nM), Vd = volume of the donor compartment (mL), Ca = concentration in acceptor compartment at the previous time point (nM), Vs = sample volume of previous time point (mL), Ac = amount of compound associated with the cells (pmol), Nfin = final time point (min). Papp = Apparent permeability (cm/sec) Rate of clearance (mL/min)=CL.vol / n Papp (cm/sec)=Rate of clearance / Surface area (cm^2)
The cleared volume was plotted against time and the slope of the regression line was divided by the surface area to obtain the Papp values. […] Mean Papp for Bas-Ap direction was divided by the Ap-Bas direction to obtain the efflux ratio and values above two were considered as drugs having true efflux transport.

In data set [4] the test system is P-gp. The settings on record: 20 μM, 96 hours, Caco-2, western blot vs control. As for the experimental part: Caco-2 cells were seeded in 6 well plates at 10,000 cells/cm^2 for 21 days. Drugs and drug combinations at 20 μM prepared in cell growth medium were added on to the mature cells and exposed for 96 hours. After drug exposure, cells were washed three times using PBS and cell lysate was prepared in lysis buffer. The protein content was quantified using the 96 well micro-Lowry protein assay and regulation of P-gp was determined using western blotting.
The membrane was blocked using 2% casein in TBS and washed with TBST. The primary antibody; Mdr (G-1) mouse monoclonal IgG2b 200 and mouse anti-β actin were used as the antibody for β-actin, the reference protein. The antibody; HRP linked goat anti mouse IgG was used as the secondary antibody. The washed membrane was incubated in a BioRad clarity chemiluminescent substrate and enhancer was read and semi quantified using the BIORAD Chemidoc MPT imager with Image LabTM software.

The subject of data set [5] is Caco-2 intestinal epithelial cells. Set-up: method as in PMID 8773952. The settings on record: earlier report ref 53; cited from earlier work.
Where [6] appears, read: summary in abstract, methylene blue depending on the direction of transport, read-out: permeability.

T1 sequence (P08183 whole entry): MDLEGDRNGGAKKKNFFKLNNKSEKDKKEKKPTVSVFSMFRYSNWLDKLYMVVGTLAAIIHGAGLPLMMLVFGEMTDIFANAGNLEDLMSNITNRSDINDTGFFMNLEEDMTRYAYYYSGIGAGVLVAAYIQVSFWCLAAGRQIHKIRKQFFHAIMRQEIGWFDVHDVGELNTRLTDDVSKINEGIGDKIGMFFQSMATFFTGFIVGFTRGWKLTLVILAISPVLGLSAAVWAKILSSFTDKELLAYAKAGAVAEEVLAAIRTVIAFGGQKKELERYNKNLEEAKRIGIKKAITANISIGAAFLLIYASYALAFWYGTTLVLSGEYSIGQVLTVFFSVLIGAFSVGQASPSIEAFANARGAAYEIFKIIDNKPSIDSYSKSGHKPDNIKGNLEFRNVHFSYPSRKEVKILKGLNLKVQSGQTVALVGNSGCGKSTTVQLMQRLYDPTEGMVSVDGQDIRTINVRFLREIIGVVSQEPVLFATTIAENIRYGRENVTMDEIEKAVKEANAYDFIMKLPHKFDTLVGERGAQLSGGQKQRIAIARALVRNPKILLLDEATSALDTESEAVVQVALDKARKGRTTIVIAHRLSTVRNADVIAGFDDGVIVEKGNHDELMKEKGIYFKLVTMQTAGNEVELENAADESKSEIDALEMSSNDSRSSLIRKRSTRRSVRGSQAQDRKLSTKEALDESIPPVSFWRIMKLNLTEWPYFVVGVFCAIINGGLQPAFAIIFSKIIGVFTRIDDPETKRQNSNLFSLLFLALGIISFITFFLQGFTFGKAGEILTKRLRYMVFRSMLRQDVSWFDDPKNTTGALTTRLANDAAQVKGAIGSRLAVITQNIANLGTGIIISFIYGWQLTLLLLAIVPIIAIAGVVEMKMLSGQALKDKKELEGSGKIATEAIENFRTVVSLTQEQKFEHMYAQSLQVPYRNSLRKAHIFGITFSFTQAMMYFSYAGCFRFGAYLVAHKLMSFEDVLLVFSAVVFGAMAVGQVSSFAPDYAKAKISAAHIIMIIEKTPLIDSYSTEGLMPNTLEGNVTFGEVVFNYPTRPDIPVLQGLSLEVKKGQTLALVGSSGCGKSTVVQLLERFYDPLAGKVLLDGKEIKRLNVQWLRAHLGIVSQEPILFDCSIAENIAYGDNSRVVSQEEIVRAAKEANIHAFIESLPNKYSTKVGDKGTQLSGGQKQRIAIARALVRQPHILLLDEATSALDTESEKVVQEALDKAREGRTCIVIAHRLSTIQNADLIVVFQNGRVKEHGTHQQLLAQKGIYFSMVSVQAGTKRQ

Consider `CCN(CC)Cc1cc(Nc2ccnc3cc(Cl)ccc23)ccc1O` [AQ, amodiaquine], for which the P-gp inhibitory properties entry with P-gp [1] (at 100 and 1000 μM ref 38) is recorded as “P-gp inhibitory properties”. Besides, in data set [2] (oral administration in human ref 46), the tmax is < 1 h. In addition, the Papp at 120 min was 16 to 22 ×10⁻⁶ cm/s in data set [3] (drug alone, read-out: Ap-Bas directional Papp, range over concentrations tested) and ~20 ×10⁻⁶ cm/s in data set [3] (setting [6]). For the same compound, the Papp at 120 min, 10 µM in data set [3] (Caco-2, Conc (μM) + inhibitor (μM): 10, first-named drug measured, read-out: Papp Ap-Bas) is 16 ± 1.1 ×10⁻⁶ cm/s. Moreover, the Papp B→A at 120 min, 10 µM in data set [3] (Caco-2, Conc (μM) + inhibitor (μM): 10, first-named drug measured, read-out: Papp Bas-Ap) was found to be 21.5 ± 0.9 ×10⁻⁶ cm/s. In addition, the Papp at 120 min, 100 µM in data set [3] (Caco-2, Conc (μM) + inhibitor (μM): 100, first-named drug measured, read-out: Papp Ap-Bas) amounted to 22.5 ± 2 ×10⁻⁶ cm/s. For the same compound, the Papp B→A at 120 min, 100 µM in data set [3] (Caco-2, Conc (μM) + inhibitor (μM): 100, first-named drug measured, read-out: Papp Bas-Ap) amounted to 23.3 ± 0.8 ×10⁻⁶ cm/s. The Net flow direction result is “Efflux (0.02) ^*” with Caco-2 cell monolayers (Conc (μM) + inhibitor (μM): 10) and “Diffusion (0.74)” with Caco-2 cell monolayers (Conc (μM) + inhibitor (μM): 100).
In the case of `C[C@H]1[C@H](OC(=O)CCC(=O)O)O[C@@H]2O[C@@]3(C)CC[C@H]4[C@H](C)CC[C@@H]1[C@@]24OO3` [ART, artesunate], the P-gp inhibitory properties entry on P-glycoprotein (P-gp) (at 100 μM) and at P-glycoprotein (P-gp) (at test concentrations) was “did not exhibit P-gp inhibitory properties” each time. In the data set with P-gp [4], the “regulation of P-gp expression” value was “slight up regulation of P-gp”. Also, the Papp at 120 min in data set [3] (read-out: permeability across the gastrointestinal epithelium (class)) was 1 to 25 ×10⁻⁶ cm/s; in data set [3] (setting [6]) it was ~10 ×10⁻⁶ cm/s. In data set [3] (Caco-2, Conc (μM) + inhibitor (μM): 50, Bas-Ap divided by Ap-Bas), the efflux ratio at 120 min, 50 µM worked out at 1.5. Besides, in data set [3] (Caco-2, Conc (μM) + inhibitor (μM): 50, first-named drug measured, read-out: Papp Ap-Bas), the Papp at 120 min, 50 µM stood at 10.2 ± 0.3 ×10⁻⁶ cm/s. Also, in data set [3] (Caco-2, Conc (μM) + inhibitor (μM): 50, first-named drug measured, read-out: Papp Bas-Ap), the Papp B→A at 120 min, 50 µM came to 12.3 ± 0.1 ×10⁻⁶ cm/s. Moreover, the Net flow direction entry with Caco-2 cell monolayers (Conc (μM) + inhibitor (μM): 50) is on record as “Efflux (0.002) ^*”. The Efflux ratio in the data set on Caco-2 cell monolayers (Conc (μM) + inhibitor (μM): 50, Bas-Ap divided by Ap-Bas) is 1.2.
Take `CN(C)c1ccc2nc3ccc(=[N+](C)C)cc-3sc2c1` [MB, methylene blue]: the oral bioavailability in data set [2] (human volunteers, 100 mg ref 51) is listed as 10%.
In the case of `C/C=C/C[C@@H](C)C(=O)[C@H]1C(=O)N[C@@H](C(C)C)C(=O)N(C)CC(=O)N(C)[C@@H](CC(C)C)C(=O)N[C@@H](C(C)C)C(=O)N(C)[C@@H](CC(C)C)C(=O)N[C@@H](C)C(=O)N[C@H](C)C(=O)N(C)[C@@H](CC(C)C)C(=O)N(C)[C@@H](CC(C)C)C(=O)N(C)[C@@H](C(C)C)C(=O)N1C` [PSC-833, PSC 833], the P-gp transport inhibition result with P-gp [1] (at 4 μM ref 19) was “completely eradicate P-gp mediated transport”.
With `COC(=O)c1ccccc1-c1c2ccc(=N)cc-2oc2cc(N)ccc12` [Rh123, rhodamine123], the “Efflux ratio of rh123” value at P-glycoprotein (P-gp) (5 μM rh123, 100 μM antimalarial drugs section) is reported as 4.7. Besides, the efflux ratio at 120 min, 5 µM is ~5 at P-glycoprotein (P-gp) (human, Caco-2, probe rhodamine 123, 5 μM rh123, 100 μM antimalarial drugs section) and 5.7 at P-glycoprotein (P-gp) (human, Caco-2, probe rhodamine 123, 5 μM rh123, 300 μM antimalarial drugs section). For the same compound, the Papp at 120 min, 5 µM at P-glycoprotein (P-gp) (human, Caco-2, probe rhodamine 123, 5 μM rh123, 300 μM antimalarial drugs section, read-out: Papp of rh123 Ap-Bas) worked out at 0.5 ± 0.1 ×10⁻⁶ cm/s.
With `C[C@H]1[C@H](OC(=O)CCC(=O)[O-])O[C@@H]2O[C@@]3(C)CC[C@H]4[C@H](C)CC[C@@H]1[C@@]24OO3.[Na+]` [sodium artesunate], in data set [5], the Papp is 4 ×10⁻⁶ cm/s.
